One test addresses acetylcholinesterase. Nature of the test: Acetylcholinesterase Inhibition Assay (photometric method of Ellman et al.). It is filed as biochemical.
The subject of test [1] is Scopolamine Induced Memory Deficit. Description: Dark Avoidance Assay (scopolamine induced memory deficit reversal). The format is in vivo. The conditions noted are these: s.c., mice, retest after 24 hours. Here is the method:
In this assay mice are tested for their ability to remember an unpleasant stimulus for a period of 24 hours. A mouse is placed in a chamber that contains a dark compartment; a strong incadescent light drives it to the dark compartment,where an electric shock is administered through metal plates on the floor. The animal is removed from the testing apparatus and tested again, 24 hours later, for the ability to remember the electric shock.
If scopolamine, an anticholinergic that is known to cause memory impairment, is administered before an animal's initial exposure to the test chamber, the animal re-enters the dark compartment shortly after being placed in the test chamber 24 hours later. This effect of scopolamine is blocked by an active test compound, resulting in a greater interval before re-entry into the dark compartment.
The results for an active compound are expressed as the percent of a group of animals in which the effect of scopolamine is blocked, as manifested by an increased interval between being placed in the test chamber and re-entering the dark compartment.

Chain of acetylcholinesterase (P22303 32-614): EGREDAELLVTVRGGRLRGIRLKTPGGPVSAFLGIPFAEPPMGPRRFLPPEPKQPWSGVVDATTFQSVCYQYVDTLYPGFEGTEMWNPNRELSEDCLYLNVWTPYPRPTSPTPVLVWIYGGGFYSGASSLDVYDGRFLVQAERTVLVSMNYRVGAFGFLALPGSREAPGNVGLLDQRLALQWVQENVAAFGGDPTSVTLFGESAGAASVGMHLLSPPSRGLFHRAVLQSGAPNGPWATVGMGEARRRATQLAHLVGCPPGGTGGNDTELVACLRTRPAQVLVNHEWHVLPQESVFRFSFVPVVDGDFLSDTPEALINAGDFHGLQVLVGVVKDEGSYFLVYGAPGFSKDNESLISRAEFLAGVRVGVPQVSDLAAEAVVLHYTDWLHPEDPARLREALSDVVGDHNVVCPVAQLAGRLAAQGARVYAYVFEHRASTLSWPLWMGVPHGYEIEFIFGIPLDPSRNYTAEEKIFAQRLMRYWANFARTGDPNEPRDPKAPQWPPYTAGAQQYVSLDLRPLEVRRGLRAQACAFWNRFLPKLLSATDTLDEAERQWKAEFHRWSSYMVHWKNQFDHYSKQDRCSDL

As usually defined, the IC50 is the point on the concentration scale where inhibition reaches its midpoint. A low value points to greater potency in that assay. At acetylcholinesterase, `Oc1ccccc1C=Nc1c2c(nc3ccccc13)CCCC2` [9-Amino-N-[(2-hydroxyphenyl)methylene]-1,2,3,4-tetrahydroacridine, hemi-fumarate] displayed an IC50 of 5100 nM. Regarding `C(=Nc1c2c(nc3ccccc13)CCCC2)c1ccccc1` [N-Phenylmethylene-1,2,3,4-tetrahydro-9-acridinamine], inhibition at acetylcholinesterase was half-maximal at 230 nM (IC50). Moreover, the “% of Animals with Scopolamine Induced Memory Deficit Reversal” value (from here on “% of Animals”) in test [1] (0.31 mg/kg of body weight) is recorded as 27%; in test [1] (5.0 mg/kg of body weight), 60%. As for `CC[C@@H]1C(=O)OC[C@@H]1Cc1cncn1C` [Pilocarpine, reference compound], the “% of Animals” value in test [1] (5.0 mg/kg of body weight) worked out at 13%. With `Nc1c2c(nc3ccccc13)CCCC2` [Tacrine, 9-amino-1,2,3,4-tetrahydroacridine, reference compound], the “% of Animals” value in test [1] (0.63 mg/kg of body weight) amounted to 13%.

For the origin of these results see patent US5013741A, “N-[substituted alkylidene]-1,2,3,4-tetrahydro-9-acridinamines useful for enhancing the cholinergic function in a mammal” (priority 1988, dated 1991).
